# Laboratory results taken from paper PMC11125018 (Pharmaceuticals, 2024).
# Several values for one entry are separate records, joined by “and”; a condition that tells them apart may be missing. Equal values may be shown once. Read-outs that look alike come from different tables or passages of the source.
# Legend:
# CB1 receptor [1] = molecular target: T1, CB1 receptor (Homo sapiens, UniProt P21554); assay: PathHunter β-arrestin recruitment assay, agonist mode, CB1 expressing CHO-K1 cell line; assay type: cell-based; conditions: for EC50: EC50 (nM), agonist effect, 90 min incubation, parentheses = SD of three independent measurements; for Hill Slope: four-parameter log-logistic fit, three measurements; for Hill Slope / Maximum RE (%): parentheses = SD; for Maximum RE (%): 100% normalized to maximum (±)-CP 55,940 stimulation, 0% to vehicle; for classification as partial agonist of the CB1 cannabinoid receptor: relative to full agonist CP 55940; for agonist property: tested up to 5 µM
# T1 construct: host or cells: CHO-K1
# T1 sequence (P21554 whole entry): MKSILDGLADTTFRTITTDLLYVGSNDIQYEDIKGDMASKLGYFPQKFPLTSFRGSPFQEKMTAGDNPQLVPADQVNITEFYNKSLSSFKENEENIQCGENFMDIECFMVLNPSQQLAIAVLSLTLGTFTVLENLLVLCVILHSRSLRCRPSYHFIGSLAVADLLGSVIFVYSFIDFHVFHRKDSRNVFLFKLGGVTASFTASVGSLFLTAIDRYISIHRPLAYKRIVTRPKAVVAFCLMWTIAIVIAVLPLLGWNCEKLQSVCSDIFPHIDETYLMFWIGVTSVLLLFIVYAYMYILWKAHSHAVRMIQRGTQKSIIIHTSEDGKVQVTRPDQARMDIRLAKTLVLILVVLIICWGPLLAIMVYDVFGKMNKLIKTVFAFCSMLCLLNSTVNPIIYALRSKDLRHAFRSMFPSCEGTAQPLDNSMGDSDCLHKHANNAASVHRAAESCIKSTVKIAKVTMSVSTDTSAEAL
# Description: (§1) For agonist and antagonist assays, PathHunter® CHO-K1 CNR1 (Eurofins DiscoverX, Fremont, CA, USA, Catalog number: 93-0959C2) β-Arrestin cells were expanded from freezer stocks according to standard procedures provided by Eurofins. The cell line manual was followed for cell growth (including cell culture media and supplementation, the handling and preparation of cells, etc.), test procedure, and signal detection. Cells were seeded in a total volume of 20 µL (5000 cells) into white-walled, 384-well microplates and incubated at 37 °C overnight prior to testing. After preparing stock acetonitrile solution at 1 mg/mL concentration of ligand, compound intermediate concentrations were achieved by a 10-point series of 3-fold compound serial dilutions in a compound dilution buffer in a separate dilution plate.
# For the agonist assay, the concentration of each dilution was prepared at 5X of the final screening concentration. An amount of 5 µL of samples was added to cells (highest final concentration = 5 µM, maximum acetonitrile = 0.2 v/v%) and incubated at 37 °C for 90 min (5% CO2). To generate the assay signal, 12.5 µL of working detection solution was added to the cells, which were then left to incubate for an hour at room temperature in the dark. The signal detection was carried out using a PerkinElmer Envision instrument to measure chemiluminescence.
# CB1 = conditions: cAMP assay, cited from earlier work; for EC50: read-out: agonist EC50
# CB2 receptor = conditions: in vitro studies; cited from earlier work
# CB1 receptor [2] = molecular target: T1, CB1 receptor; assay: cell-based; assay type: cell-based; conditions: for Hill Slope / Maximum RE (%): antagonist mode, parentheses = SD; for Hill Slope: four-parameter log-logistic fit, three measurements; for Maximum RE (%): 100% normalized to maximum AM-281, 0% to vehicle
# Description: as §1
# For antagonist determination, cells were pre-incubated with THCV isomers, followed by agonist challenge at the EC80 concentration. Each THCV dilution was prepared at a 10X concentration relative to the intended final concentrations for screening. An amount of 2.5 µL of these samples were introduced into the cells, achieving a maximum final concentration of 5 µM for THCV and ~0.2 v/v% for acetonitrile. The assay plate was incubated at 37 °C for 30 min in an atmosphere containing 5% CO2. […] Cells were incubated for 90 min at 37 °C and 5% CO2. To generate the assay signal, 12.5 µL of working detection solution was added to the cells, which were then left to incubate for an hour at room temperature in the dark. The signal detection was carried out using a PerkinElmer Envision (Waltham, MA, USA) instrument to measure chemiluminescence.
Compound,EC50 (CB1 receptor [1]),Hill Slope (CB1 receptor [1]; agonist mode),Maximum RE (%) (CB1 receptor [1]; agonist mode),classification as partial agonist of the CB1 cannabinoid receptor (CB1 receptor [1]),EC50 (CB1) [nM],CB2 selectivity (CB2 receptor) [times],Hill Slope (CB1 receptor [2]),Maximum RE (%) (CB1 receptor [2]),agonist property (CB1 receptor [1]; agonist mode),IC50 (CB1 receptor [2]; IC50 (nM)) [nM],also measured
"CCCCCc1cc(O)c2c(c1)OC(C)(C)[C@@H]1CC[C@@H](C)C[C@@H]21 [9R-HHC, hexahydrocannabinol]",53.4 nM and 53.5 nM,0.56 (0.07),41.51% and 41.51 (1.70) %,moderate,3.4,1.2,–,–,–,–,fold higher agonist potency than 9S-HHC (CB1): approximately 16 fold
"CCCCCc1cc(O)c2c(c1)OC(C)(C)[C@@H]1CC[C@H](C)C[C@@H]21 [9S-HHC, hexahydrocannabinol]",624 nM,0.95 (0.08),20.58% and 20.58 (0.80) %,weak,57,1.7,–,–,–,–,–
"Cc1c(C(=O)NN2CCOCC2)nn(-c2ccc(Cl)cc2Cl)c1-c1ccc(I)cc1 [AM-281, reference compound]",–,–,–,–,–,–,0.81 (0.07),101.90 (1.63) %,–,–,IC50 (CB1 receptor [2]; read-out: IC50): 17.7 nM
"CCCCCCC(C)(C)c1ccc([C@@H]2C[C@H](O)CC[C@H]2CCCO)c(O)c1 [CP 55940, reference compound]",–,0.90 (0.10),105.50 (3.34) %,–,–,–,–,–,–,–,–
"CCCc1cc(O)c2c(c1)OC(C)(C)[C@@H]1CC=C(C)C[C@@H]21 [∆8-THCV, tetrahydrocannabivarin]",–,–,–,–,–,–,1.37 (0.09),97.40 (1.16) %,failed to show any significant agonist property,120,–
"CCCc1cc(O)c2c(c1)OC(C)(C)[C@@H]1CCC(C)=C[C@@H]21 [∆9-THCV, tetrahydrocannabivarin]",–,–,–,–,–,–,1.38 (0.18),96.46 (2.20) %,failed to show any significant agonist property,52.4,"Emax (CB1 receptor [1]; CHO-K1, agonist mode, up to 5 µM, insignificant increase from baseline): 1.19%; fold less potent antagonist than AM-281 (CB1 receptor [2]): ~ 3 ×; fold less potent antagonist than rimonabant (CB1 receptor [2]): ~ 45 ×"
